Experimental data: patent US8759104B2, “Cationic lipids” (The University Court of the University of Edinburgh, priority 2010, dated 2014)

Tested on: HeLa cells
Assay: Transfection of pEGFP-C1 reporter plasmid into HeLa cells, GFP expression by flow cytometry
Assay type: cell-based, human
Conditions: HeLa cells 48 h after transfection with reporter plasmid, flow cytometry
Procedure: The corresponding cationic lipid (1 mM in methanol) were mixed in different proportions with DOPE (10 mg/mL in chloroform) and the organic solvent removed by evaporation in an oven (37° C.) overnight. The resultant thin films were then hydrated with PBS. The solutions were vortexed (10-20 s) and incubated at ambient temperature for 20 min. Plasmid DNA or siRNA solution (0.04 mg/mL in PBS or another isotonic solution) was subsequently added and the solution vortexed (10-20 s). The lipoplexes were incubated at room temperature for 20 min before being used.
Human HeLa cells were grown in RPMI supplemented with 4 mM glutamine, 10% FCS and 100 units/ml penicillin/streptomycin (RPMI-CM) until 80% confluence. HEK293 and B16F10 cells were grown in DMEM supplemented with 4 mM glutamine, 10% FCS and 100 units/ml penicillin/streptomycin (DMEM-CM) until 80% confluence. Cells were then suspended using trypsin/EDTA and counted. 2×10^4 cells in 150 μL of media per well were seeded in 96 well plates and incubated overnight. The day afterwards, the different lipoplex formulations were added. Each experiment was performed in quadruplicate, using Effectene® Transfection Reagent (Qiagen), Lipofectamine™ 2000 (Invitrogen) and Fugene (Roche) as positive controls and untreated cells as negative controls. After two days incubation at 37° C. and 5% CO2 (the change of media after transfection was not necessary), the green fluorescent protein (GFP) expression, as a consequence of transfecting the pEGFP-C1, was evidenced using a fluorescent microscope (Leica) and measured by flow cytometry. For the flow cytometry analysis, cells were washed twice with PBS, detached with trypsin/EDTA, harvested with 2% ferum bovine serum (FBS) in PBS, centrifuged and resuspended with 2% FBS in PBS and analyzed using a BD FACSaria flow cytometer. Transfection efficiency was measured as percentage of transfected cells.
Reagents that obtained greater than 50% transfection were also analyzed against HEK293 and B16F10 cell lines. Transfection results (+ percentages of transfection between 5-25%; ++ percentages of transfection between 25-50%; N.D. not determined). MTT toxicity assay results are indicated between brackets with 100% being cell viability of untreated cells.

CCCCCCCCCCCCCCCCCCCC(=O)NCCCN(CCCNC(=O)CCCCCCCCCCCCCCCCCCC)C(=O)/C=C\C(=O)N[C@@H](CCCNC(=N)N)C(N)=O.O=C(O)C(F)(F)F [Compound A1-Sp4-A]
Transfection results (percentage of transfected cells), HeLa: + (percentages of transfection between 5-25%)

CCCCCCCCCCCCCCCCCC(=O)NCCCN(CCCNC(=O)CCCCCCCCCCCCCCCCC)C(=O)CCC(=O)N[C@@H](CCCNC(=N)N)C(=O)N[C@@H](CCCNC(=N)N)C(=O)N[C@@H](CCCNC(=N)N)C(N)=O.O=C(O)C(F)(F)F.O=C(O)C(F)(F)F.O=C(O)C(F)(F)F [Compound A3-Sp3-S]
Transfection results (percentage of transfected cells), HeLa: + (percentages of transfection between 5-25%)

CCCCCCCCCCCCCCCCCC(=O)NCCN(CCNC(=O)CCCCCCCCCCCCCCCCC)C(=O)/C=C\C(=O)N[C@@H](CCCNC(=N)N)C(=O)N[C@@H](CCCNC(=N)N)C(=O)N[C@@H](CCCNC(=N)N)C(N)=O.O=C(O)C(F)(F)F.O=C(O)C(F)(F)F.O=C(O)C(F)(F)F [Compound A3-Sp2-S]
Transfection results (percentage of transfected cells), HeLa: ++ (percentages of transfection between 25-50%)

CCCCCCCC/C=C\CCCCCCCC(=O)NCCN(CCNC(=O)CCCCCCC/C=C\CCCCCCCC)C(=O)CCC(=O)N[C@@H](CCCNC(=N)N)C(=O)N[C@@H](CCCNC(=N)N)C(N)=O.O=C(O)C(F)(F)F.O=C(O)C(F)(F)F [Compound A2-Sp1-O]
Transfection results (percentage of transfected cells), HeLa: ++ (percentages of transfection between 25-50%)

CCCCCCCCCCCCCCCC(=O)NCCCN(CCCNC(=O)CCCCCCCCCCCCCCC)C(=O)CCC(=O)N[C@@H](CCCNC(=N)N)C(=O)N[C@@H](CCCNC(=N)N)C(=O)N[C@@H](CCCNC(=N)N)C(N)=O.O=C(O)C(F)(F)F.O=C(O)C(F)(F)F.O=C(O)C(F)(F)F [Compound A3-Sp3-P]
Transfection results (percentage of transfected cells), HeLa: ++ (percentages of transfection between 25-50%)

CCCCCCCC/C=C\CCCCCCCC(=O)NCCN(CCNC(=O)CCCCCCC/C=C\CCCCCCCC)C(=O)/C=C\C(=O)N[C@@H](CCCNC(=N)N)C(=O)N[C@@H](CCCNC(=N)N)C(=O)N[C@@H](CCCNC(=N)N)C(N)=O.O=C(O)C(F)(F)F.O=C(O)C(F)(F)F.O=C(O)C(F)(F)F [Compound A3-Sp2-O]
Transfection results (percentage of transfected cells), HeLa: ++ (percentages of transfection between 25-50%)

CCCCCCCC/C=C\CCCCCCCC(=O)NCCN(CCNC(=O)CCCCCCC/C=C\CCCCCCCC)C(=O)/C=C\C(=O)N[C@@H](CCCNC(=N)N)C(N)=O.O=C(O)C(F)(F)F [Compound A1-Sp2-O]
Transfection results (percentage of transfected cells), HeLa: + (percentages of transfection between 5-25%)

CCCCCCCCCCCCCCCC(=O)NCCN(CCNC(=O)CCCCCCCCCCCCCCC)C(=O)/C=C\C(=O)N[C@@H](CCCNC(=N)N)C(N)=O.O=C(O)C(F)(F)F [Compound A1-Sp2-P]
Transfection results (percentage of transfected cells), HeLa: ++ (percentages of transfection between 25-50%)

CCCCCCCCCCCCCCCCCCCCCCCC(=O)NCCCN(CCCNC(=O)CCCCCCCCCCCCCCCCCCCCCCC)C(=O)/C=C\C(=O)N[C@@H](CCCNC(=N)N)C(=O)N[C@@H](CCCNC(=N)N)C(N)=O.O=C(O)C(F)(F)F.O=C(O)C(F)(F)F [Compound A2-Sp4-L]
Transfection results (percentage of transfected cells), HeLa: + (percentages of transfection between 5-25%)

CCCCCCCCCCCCCCCCCCCC(=O)NCCN(CCNC(=O)CCCCCCCCCCCCCCCCCCC)C(=O)/C=C\C(=O)N[C@@H](CCCNC(=N)N)C(N)=O.O=C(O)C(F)(F)F [Compound A1-Sp2-A]
Transfection results (percentage of transfected cells), HeLa: + (percentages of transfection between 5-25%)

CCCCCCCCCCCCCCCCCCCC(=O)NCCN(CCNC(=O)CCCCCCCCCCCCCCCCCCC)C(=O)CCC(=O)N[C@@H](CCCNC(=N)N)C(N)=O.O=C(O)C(F)(F)F [Compound A1-Sp1-A]
Transfection results (percentage of transfected cells), HeLa: + (percentages of transfection between 5-25%)

CCCCCCCCCCCCCCCCCCCCCCCC(=O)NCCN(CCNC(=O)CCCCCCCCCCCCCCCCCCCCCCC)C(=O)/C=C\C(=O)N[C@@H](CCCNC(=N)N)C(N)=O.O=C(O)C(F)(F)F [Compound A1-Sp2-L]
Transfection results (percentage of transfected cells), HeLa: + (percentages of transfection between 5-25%)

CCCCCCCCCCCCCCCCCCCC(=O)NCCN(CCNC(=O)CCCCCCCCCCCCCCCCCCC)C(=O)CCC(=O)N[C@@H](CCCNC(=N)N)C(=O)N[C@@H](CCCNC(=N)N)C(N)=O.O=C(O)C(F)(F)F.O=C(O)C(F)(F)F [Compound A2-Sp1-A]
Transfection results (percentage of transfected cells), HeLa: + (percentages of transfection between 5-25%)

CCCCCCCCCCCCCCCC(=O)NCCN(CCNC(=O)CCCCCCCCCCCCCCC)C(=O)CCC(=O)N[C@@H](CCCNC(=N)N)C(N)=O.O=C(O)C(F)(F)F [Compound A1-Sp1-P]
Transfection results (percentage of transfected cells), HeLa: + (percentages of transfection between 5-25%)

CCCCCCCCCCCCCCCCCC(=O)NCCCN(CCCNC(=O)CCCCCCCCCCCCCCCCC)C(=O)CCC(=O)N[C@@H](CCCNC(=N)N)C(=O)N[C@@H](CCCNC(=N)N)C(N)=O.O=C(O)C(F)(F)F.O=C(O)C(F)(F)F [Compound A2-Sp3-S]
Transfection results (percentage of transfected cells), HeLa: + (percentages of transfection between 5-25%)

CCCCCCCC/C=C\CCCCCCCC(=O)NCCCN(CCCNC(=O)CCCCCCC/C=C\CCCCCCCC)C(=O)CCC(=O)N[C@@H](CCCNC(=N)N)C(N)=O.O=C(O)C(F)(F)F [Compound A1-Sp3-O]
Transfection results (percentage of transfected cells), HeLa: ++ (percentages of transfection between 25-50%)

CCCCCCCCCCCCCCCCCCCCCCCC(=O)NCCCN(CCCNC(=O)CCCCCCCCCCCCCCCCCCCCCCC)C(=O)/C=C\C(=O)N[C@@H](CCCNC(=N)N)C(=O)N[C@@H](CCCNC(=N)N)C(=O)N[C@@H](CCCNC(=N)N)C(N)=O.O=C(O)C(F)(F)F.O=C(O)C(F)(F)F.O=C(O)C(F)(F)F [Compound A3-Sp4-L]
Transfection results (percentage of transfected cells), HeLa: ++ (percentages of transfection between 25-50%)

CCCCCCCCCCCCCCCCCC(=O)NCCN(CCNC(=O)CCCCCCCCCCCCCCCCC)C(=O)CCC(=O)N[C@@H](CCCNC(=N)N)C(N)=O.O=C(O)C(F)(F)F [Compound A1-Sp1-S]
Transfection results (percentage of transfected cells), HeLa: + (percentages of transfection between 5-25%)

CCCCCCCCCCCCCCCCCC(=O)NCCN(CCNC(=O)CCCCCCCCCCCCCCCCC)C(=O)CCC(=O)N[C@@H](CCCNC(=N)N)C(=O)N[C@@H](CCCNC(=N)N)C(=O)N[C@@H](CCCNC(=N)N)C(N)=O.O=C(O)C(F)(F)F.O=C(O)C(F)(F)F.O=C(O)C(F)(F)F [Compound A3-Sp1-S]
Transfection results (percentage of transfected cells), HeLa: ++ (percentages of transfection between 25-50%)

CCCCCCCCCCCCCCCCCCCC(=O)NCCCN(CCCNC(=O)CCCCCCCCCCCCCCCCCCC)C(=O)/C=C\C(=O)N[C@@H](CCCNC(=N)N)C(=O)N[C@@H](CCCNC(=N)N)C(=O)N[C@@H](CCCNC(=N)N)C(N)=O.O=C(O)C(F)(F)F.O=C(O)C(F)(F)F.O=C(O)C(F)(F)F [Compound A3-Sp4-A]
Transfection results (percentage of transfected cells), HeLa: + (percentages of transfection between 5-25%)

CCCCCCCCCCCCCCCC(=O)NCCCN(CCCNC(=O)CCCCCCCCCCCCCCC)C(=O)CCC(=O)N[C@@H](CCCNC(=N)N)C(=O)N[C@@H](CCCNC(=N)N)C(N)=O.O=C(O)C(F)(F)F.O=C(O)C(F)(F)F [Compound A2-Sp3-P]
Transfection results (percentage of transfected cells), HeLa: + (percentages of transfection between 5-25%)

CCCCCCCC/C=C\CCCCCCCC(=O)NCCCN(CCCNC(=O)CCCCCCC/C=C\CCCCCCCC)C(=O)CCC(=O)N[C@@H](CCCNC(=N)N)C(=O)N[C@@H](CCCNC(=N)N)C(=O)N[C@@H](CCCNC(=N)N)C(N)=O.O=C(O)C(F)(F)F.O=C(O)C(F)(F)F.O=C(O)C(F)(F)F [Compound A3-Sp3-O]
Transfection results (percentage of transfected cells), HeLa: ++ (percentages of transfection between 25-50%)
